In US20170368082A1, “FORMULATIONS OF BRINCIDOFOVIR” (priority 2016, published 2017):
Where two headings read alike, the source gives them in different places.

Tests used:
[1] = 28-day study toxicokinetics of brincidofovir and CDV in plasma; type: in vivo, Sprague-Dawley CD rats; conditions: plasma brincidofovir; for AUC(0-t) / Cmax: iv
Protocol: Blood samples were obtained for the determination of plasma concentrations of brincidofovir and the brincidofovir metabolite, cidofovir.
Approximately 0.40 mL of whole blood was obtained via the tail vein from each animal at each time point. Animals were not fasted prior to blood collection. Blood was collected into tubes containing K2EDTA anticoagulant and placed on wet ice in an upright position. Plasma was separated by centrifugation (for 10 minutes at approximately 2000 g, at approximately 2-8° C.). Approximately 0.150 mL of plasma was transferred into a single cryotube appropriately labeled as to study number, animal number, time point, date of sampling and sample type. Remaining plasma was transferred into a second cryotube and retained as a backup sample. Plasma was obtained and frozen at approximately −80±10° C. within approximately 2 hours after collection of each blood sample until analysis. Animals were euthanized (CO2 inhalation) after the final blood collection.
Bioanalytical samples were analyzed using a validated liquid chromatographic-triple quadruple mass spectrometric (LC-MS/MS) assay at Pyxant Labs.
Upon receipt of the plasma concentration data, noncompartmental toxicokinetic analysis was performed by Nuventra, Inc. Durham, N.C.

rat whole blood = test: Hemolytic potential, cyanmethemoglobin method, rat whole blood; type: cell-based; conditions: for Estimated % Hemolysis: based on normal rat hemoglobin 13 g/dL; for Mean HgB Concentration: interference control, Phase 1
Protocol: Each concentration of test item for the rat was mixed separately in a 1:4 ratio with rat whole blood while each concentration of test item for the human was mixed separately in a 1:4 ratio with human whole blood. These samples plus control samples [vehicle control (vehicle+whole blood, 1 for rat and 1 for humans), positive control (1% Saponin+whole blood), untreated whole blood control and negative control (saline+whole blood) were analyzed for hemolysis (supernatant hemoglobin concentration).
(§1) The rat and human whole blood samples were incubated in test or control items at 37±1° C. for 20 minutes and then immediately (within 2 minutes) centrifuged at 3500±100 rpm (2740 g) at room temperature for 5-10 minutes. The supernatant was extracted and subjected to a hemoglobin analysis using the cyanmethemoglobin method employed on the Siemens Advia 120 hematology analyzer. If the test item has a potential for causing hemolysis, then hemoglobin released from lysed red blood cells into the plasma supernatant can be quantified via the reaction of heme iron in solution being oxidized from a ferrous to a ferric state in the presence of potassium cyanide. The reaction results in the formation of methemoglobin, which then combines with cyanide to form a stable cyanmethemoglobin. When measured spectrophotometrically at 546 nm the absorbance of cyanmethemoglobin follows Beer's Law and is directly proportional to the concentration of hemoglobin released into solution.
as §1, with “Without wishing to be bound by theory, if” for “If”

[2] = Plasma BCV PK following single dose oral tablet administration (Table 105); type: in vivo; conditions: human; for AUC(0-inf) / Cmax: plasma, po
[3] = Drug product vial and stopper compatibility; type: physicochemical
Protocol: Formulations of the disclosure were evaluated for […]. The testing formulation (5 mL, 10 mg/mL brincidofovir, 200 mM sodium phosphate, pH=8.0) was dispensed into a set of Afton sterilized, Ready-To-Fill® vials. The vials were stoppered with West NovaPure® stoppers and crimped with Afton Ready-To-Fill® sterilized seals, and stored for 6 hours at ambient conditions in upright and inverted orientations. Samples of the filling solution were collected before filling and after 6 hours of storage under the respective condition. The collected samples were assessed for their appearance, pH, and c(BCV). […] No additional impurity was introduced following contact.
The vials used for testing were clear, 20 mL, Class A borosilicate glass serum vials, and the stoppers were 20 mm Novapure® stoppers, with FluroTec® coating.

[4] = both sexes, Sprague-Dawley CD, rat, in vivo, 4 mg/kg, Day 1, 4 mg/kg, combined male and female, Mean
[5] = both sexes, Sprague-Dawley CD, rat, in vivo, 4 mg/kg, Day 1, 4 mg/kg, combined male and female, Median
[6] = both sexes, Sprague-Dawley CD, rat, in vivo, 15 mg/kg, Day 1, 15 mg/kg, combined male and female, Mean
[7] = both sexes, Sprague-Dawley CD, rat, in vivo, 15 mg/kg, Day 1, 15 mg/kg, combined male and female, Median
[8] = Day 29, 1 mg/kg, combined male and female rats, mean
[9] = Day 29, 4 mg/kg, combined male and female rats, mean
[10] = Day 29, 15 mg/kg, combined male and female rats, mean
[11] = Day 1, 1 mg/kg, combined male and female, Median
[12] = Day 1, 4 mg/kg, combined male and female, Mean
[13] = Day 1, 4 mg/kg, combined male and female, Median
[14] = Day 1, 15 mg/kg, combined male and female, Mean
[15] = Day 1, 15 mg/kg, combined male and female, Median
[16] = 100 mg, 100 mg Oral Tablet, N = 52, geometric mean
[17] = 200 mg, 200 mg Oral Tablet, N = 15, geometric mean
[18] = 200 mg, 200 mg Oral Tablet, N = 63, geometric mean
[19] = 350 mg, 350 mg Oral Tablet, N = 70, geometric mean

CCCCCCCCCCCCCCCCOCCCOP(=O)(O)CO[C@H](CO)Cn1ccc(N)nc1=O [Brincidofovir]
concentration at 2 h ([1]; both sexes, Sprague-Dawley CD, rat, in vivo, 1 mg/kg, Day 1, 1 mg/kg, combined male and female, Mean, read-out: Clast): 209 ng/mL
concentration at 8 hr ([1]; both sexes, Sprague-Dawley CD, rat, in vivo, 4 mg/kg, Day 29, 4 mg/kg, combined male and female rats, mean, read-out: Clast): 2.06 ng/mL
concentration at 8 h ([1]; both sexes, Sprague-Dawley CD, rat, in vivo, 4 mg/kg, Day 1, 4 mg/kg, combined male and female, Mean, read-out: Clast): 2.2 ng/mL
concentration at 8 h ([1]; both sexes, Sprague-Dawley CD, rat, in vivo, 4 mg/kg, Day 1, 4 mg/kg, combined male and female, Median, read-out: Clast): 2.31 ng/mL
concentration at 8 hr ([1]; both sexes, Sprague-Dawley CD, rat, in vivo, 15 mg/kg, Day 29, 15 mg/kg, combined male and female rats, mean, read-out: Clast): 10.9 ng/mL
concentration at 8 h ([1]; both sexes, Sprague-Dawley CD, rat, in vivo, 15 mg/kg, Day 1, 15 mg/kg, combined male and female, Mean, read-out: Clast): 9.68 ng/mL
concentration at 8 h ([1]; both sexes, Sprague-Dawley CD, rat, in vivo, 15 mg/kg, Day 1, 15 mg/kg, combined male and female, Median, read-out: Clast): 10.3 ng/mL
AUC(0-t) ([1]; both sexes, Sprague-Dawley CD, rat, in vivo, 1 mg/kg, Day 29, 1 mg/kg, combined male and female rats, mean, calculated using only 2 quantifiable data points): 410 ng·h/mL
Cmax ([1]; both sexes, Sprague-Dawley CD, rat, in vivo, 1 mg/kg, Day 1, 1 mg/kg, combined male and female, Mean): 219 ng/mL
AUC(0-t) ([1]; both sexes, Sprague-Dawley CD, rat, in vivo, 1 mg/kg, Day 1, 1 mg/kg, combined male and female, Mean, only 2 quantifiable data points): 319 ng·h/mL
Cmax ([1]; both sexes, Sprague-Dawley CD, rat, in vivo, 1 mg/kg, Day 1, 1 mg/kg, combined male and female, Median): 210 ng/mL
AUC(0-t) ([1]; both sexes, Sprague-Dawley CD, rat, in vivo, 1 mg/kg, Day 1, 1 mg/kg, combined male and female, Median, only 2 quantifiable data points): 305 ng·h/mL
AUC(0-t) ([1]; both sexes, Sprague-Dawley CD, rat, in vivo, 4 mg/kg, Day 29, 4 mg/kg, combined male and female rats, mean): 2760 ng·h/mL
AUC(0-t) [1, 4]: 2220 ng·h/mL
Cmax [1, 4]: 1010 ng/mL
AUC(0-t) [1, 5]: 2320 ng·h/mL
Cmax [1, 5]: 1000 ng/mL
AUC(0-t) ([1]; both sexes, Sprague-Dawley CD, rat, in vivo, 15 mg/kg, Day 29, 15 mg/kg, combined male and female rats, mean): 9890 ng·h/mL
AUC(0-t) [1, 6]: 8820 ng·h/mL
Cmax [1, 6]: 3800 ng/mL
AUC(0-t) [1, 7]: 8780 ng·h/mL
Cmax [1, 7]: 3760 ng/mL
AUClast/Dose [1, 8]: 410 (hr*ng/mL)/(mg/kg)
Cmax/Dose [1, 8]: 298 kg·ng/mL/mg
Tlast ([1]; Day 29, 1 mg/kg, combined male and female rats, median): 2.00 h
AUClast/Dose [1, 9]: 690 (hr*ng/mL)/(mg/kg)
Cmax/Dose [1, 9]: 301 kg·ng/mL/mg
Tlast ([1]; Day 29, 4 mg/kg, combined male and female rats, median): 8.00 h
AUClast/Dose [1, 10]: 660 (hr*ng/mL)/(mg/kg)
Cmax/Dose [1, 10]: 300 kg·ng/mL/mg
Tlast ([1]; Day 29, 15 mg/kg, combined male and female rats, median): 8.00 h
Cmax/Dose ([1]; Day 1, 1 mg/kg, combined male and female, Mean): 219 kg·ng/mL/mg
AUClast/Dose ([1]; Day 1, 1 mg/kg, combined male and female, Mean, only 2 quantifiable data points): 319 (hr*ng/mL)/(mg/kg)
Clast [1, 11]: 206 ng/mL
Cmax/Dose [1, 11]: 210 kg·ng/mL/mg
Tlast [1, 11]: 2.00 h
AUClast/Dose ([1]; Day 1, 1 mg/kg, combined male and female, Median, only 2 quantifiable data points): 305 (hr*ng/mL)/(mg/kg)
AUClast/Dose [1, 12]: 554 (hr*ng/mL)/(mg/kg)
Cmax/Dose [1, 12]: 252 kg·ng/mL/mg
AUClast/Dose [1, 13]: 579 (hr*ng/mL)/(mg/kg)
Cmax/Dose [1, 13]: 250 kg·ng/mL/mg
Tlast [1, 13]: 8.00 h
AUClast/Dose [1, 14]: 588 (hr*ng/mL)/(mg/kg)
Cmax/Dose [1, 14]: 254 kg·ng/mL/mg
AUClast/Dose [1, 15]: 585 (hr*ng/mL)/(mg/kg)
Cmax/Dose [1, 15]: 251 kg·ng/mL/mg
Tlast [1, 15]: 8.00 h
Brincidofovir concentration with in vitro evidence of hemolysis (rat whole blood): above 0.75 mg/mL
Hemolysis classification (rat whole blood; 0.2 mg/mL): non-hemolytic (Formulations with a hemolysis value of <10% are considered to be non-hemolytic)
Calculated % hemolysis (rat whole blood; 0.5 mg/mL ([…])): 2.4%
Calculated % hemolysis (rat whole blood; 1.6 mg/mL ([…])): 13.0%
Hemolysis classification (rat whole blood; 0.5 and 1.6 mg/mL): not considered a hemolytic risk
Estimated % Hemolysis (rat whole blood; Tube 1B: Test Item (0.5 mg/mL) + rat whole blood): 2.4%
Estimated % Hemolysis (rat whole blood; Tube 1C: Test Item (1.6 mg/mL) + rat whole blood): 13.0%
Mean HgB Concentration (rat whole blood; Tube 2A: Test Item (0.2 mg/mL) + saline): 0.0 g/dL
Mean HgB Concentration (rat whole blood; Tube 2B: Test Item (0.5 mg/mL) + saline): 0.0 g/dL
Mean HgB Concentration (rat whole blood; Tube 2C: Test Item (1.6 mg/mL) + saline): 0.0 g/dL
half-life ([2]; 100 mg Oral Tablet, N = 52, geometric mean): 7.62 h
half-life ([2]; 200 mg Oral Tablet, N = 15, geometric mean): 12 h
AUC(0-inf) [2, 16]: 1380 ng·h/mL
Cmax [2, 16]: 258 ng/mL
AUC(0-inf) [2, 17]: 3310 ng·h/mL
Cmax [2, 17]: 622 ng/mL
AUC(0-inf) [2, 18]: 3740 ng·h/mL
Cmax [2, 18]: 802 ng/mL
AUC(0-inf) [2, 19]: 6940 ng·h/mL
Cmax [2, 19]: 1480 ng/mL
Appearance ([3]; Inverted, 6 h): Clear, colorless
Measured pH ([3]; Inverted, 6 h): 8.0
Observed c(BCV) ([3]; Inverted, 6 h): 9.4 mg/mL
Appearance ([3]; Pre filling): Clear, colorless
Measured pH ([3]; Pre filling): 8.0
Observed c(BCV) ([3]; Pre filling): 9.5 mg/mL
Appearance ([3]; Upright, 6 h): Clear, colorless
Measured pH ([3]; Upright, 6 h): 8.0
Observed c(BCV) ([3]; Upright, 6 h): 9.5 mg/mL
